Assay [1] addresses Rho-associated protein kinase 1 (Homo sapiens) (UniProt Q13464). Kind of assay: Selectivity interaction (ProQinase) EUB0000171b ROCK1.
Assay [2] concerns the target T1, Myosin-IIIb (Homo sapiens) (UniProt Q8WXR4).
T1 sequence (whole entry): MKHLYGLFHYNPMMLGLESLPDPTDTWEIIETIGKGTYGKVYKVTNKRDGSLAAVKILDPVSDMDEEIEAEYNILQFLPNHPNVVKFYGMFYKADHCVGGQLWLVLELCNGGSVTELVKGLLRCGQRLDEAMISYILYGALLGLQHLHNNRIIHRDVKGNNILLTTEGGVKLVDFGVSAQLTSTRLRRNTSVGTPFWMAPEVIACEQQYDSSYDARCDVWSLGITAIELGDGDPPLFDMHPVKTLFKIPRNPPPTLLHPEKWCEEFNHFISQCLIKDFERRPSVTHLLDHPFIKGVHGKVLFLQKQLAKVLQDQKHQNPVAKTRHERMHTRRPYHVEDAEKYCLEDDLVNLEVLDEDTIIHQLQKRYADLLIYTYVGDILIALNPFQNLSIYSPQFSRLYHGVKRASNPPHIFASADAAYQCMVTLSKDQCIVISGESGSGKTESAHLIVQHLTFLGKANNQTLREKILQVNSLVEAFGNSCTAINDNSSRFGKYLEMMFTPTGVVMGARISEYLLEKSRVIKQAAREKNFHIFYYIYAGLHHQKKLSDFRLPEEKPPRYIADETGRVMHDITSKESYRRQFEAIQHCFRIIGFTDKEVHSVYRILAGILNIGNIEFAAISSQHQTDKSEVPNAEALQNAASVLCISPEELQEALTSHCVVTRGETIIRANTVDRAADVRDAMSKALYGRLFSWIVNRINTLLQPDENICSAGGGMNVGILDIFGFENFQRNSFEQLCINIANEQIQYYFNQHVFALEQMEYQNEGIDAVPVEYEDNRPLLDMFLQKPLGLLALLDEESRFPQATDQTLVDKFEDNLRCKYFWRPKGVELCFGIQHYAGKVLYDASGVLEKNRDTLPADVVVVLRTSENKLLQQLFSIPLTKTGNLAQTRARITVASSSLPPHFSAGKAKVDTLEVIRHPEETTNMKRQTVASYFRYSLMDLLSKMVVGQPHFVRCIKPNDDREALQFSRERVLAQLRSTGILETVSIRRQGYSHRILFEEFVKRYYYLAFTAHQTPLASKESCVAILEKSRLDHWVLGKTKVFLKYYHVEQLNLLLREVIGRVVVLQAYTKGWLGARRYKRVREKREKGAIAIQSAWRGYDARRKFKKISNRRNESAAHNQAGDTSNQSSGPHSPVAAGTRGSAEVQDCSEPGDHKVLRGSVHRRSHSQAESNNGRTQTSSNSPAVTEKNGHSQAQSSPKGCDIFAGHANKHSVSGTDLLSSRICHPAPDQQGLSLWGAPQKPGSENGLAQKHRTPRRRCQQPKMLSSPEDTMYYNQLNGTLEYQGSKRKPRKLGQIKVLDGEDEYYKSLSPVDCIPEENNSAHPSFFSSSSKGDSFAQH
Conditions: at 10 µM.

In assay [3] the target is Dual specificity protein kinase CLK4 (Homo sapiens, UniProt Q9HAZ1). Description: Selectivity interaction (KinomeScan (DiscoverX)) EUB0001079a CLK4. Conditions: at 1 µM.
Assay [4] concerns the target Serine/threonine-protein kinase PLK2 (Homo sapiens, UniProt Q9NYY3). Description: Selectivity interaction (KinomeScan (DiscoverX)) EUB0001049a PLK2. Conditions: at 1 µM.
In assay [5] the target is Mitogen-activated protein kinase kinase kinase 10 (Homo sapiens) (UniProt Q02779). Description: Selectivity interaction (KinomeScan (DiscoverX)) EUB0000695a MAP3K10. To be noted: at 100 nM.
Chain of Mitogen-activated protein kinase kinase kinase 10 (Homo sapiens) (Q02779 whole entry, looked up): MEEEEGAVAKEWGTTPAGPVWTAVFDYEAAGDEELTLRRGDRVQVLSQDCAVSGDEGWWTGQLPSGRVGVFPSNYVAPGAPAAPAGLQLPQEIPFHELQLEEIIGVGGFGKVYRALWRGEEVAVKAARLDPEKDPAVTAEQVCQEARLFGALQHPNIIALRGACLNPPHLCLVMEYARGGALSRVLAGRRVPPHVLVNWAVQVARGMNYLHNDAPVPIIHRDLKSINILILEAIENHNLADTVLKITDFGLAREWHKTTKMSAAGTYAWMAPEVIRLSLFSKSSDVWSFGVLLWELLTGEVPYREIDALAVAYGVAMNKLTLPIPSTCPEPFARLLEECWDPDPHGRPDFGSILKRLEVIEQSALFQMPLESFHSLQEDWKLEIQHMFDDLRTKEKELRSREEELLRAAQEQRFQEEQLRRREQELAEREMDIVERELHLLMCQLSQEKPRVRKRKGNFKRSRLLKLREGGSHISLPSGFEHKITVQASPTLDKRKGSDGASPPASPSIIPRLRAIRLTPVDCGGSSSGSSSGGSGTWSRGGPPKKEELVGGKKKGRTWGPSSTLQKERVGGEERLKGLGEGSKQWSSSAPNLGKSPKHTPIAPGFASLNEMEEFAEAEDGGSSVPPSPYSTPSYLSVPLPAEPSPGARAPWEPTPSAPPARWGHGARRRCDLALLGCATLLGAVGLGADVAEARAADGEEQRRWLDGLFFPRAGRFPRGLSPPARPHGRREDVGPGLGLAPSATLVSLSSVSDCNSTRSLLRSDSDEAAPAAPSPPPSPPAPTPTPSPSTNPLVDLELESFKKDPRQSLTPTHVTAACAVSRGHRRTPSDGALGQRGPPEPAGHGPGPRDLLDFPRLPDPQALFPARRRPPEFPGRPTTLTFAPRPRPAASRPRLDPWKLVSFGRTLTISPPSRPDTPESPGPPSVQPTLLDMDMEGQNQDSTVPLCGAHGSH
The target in assay [6] is Sodium-dependent serotonin transporter (Homo sapiens, UniProt P31645). Kind of assay: Selectivity interaction (Eurofins CEREP Diversity Profile (receptors and ion channels)) EUB0000279b SLC6A4. To be noted: at 10 µM.
In assay [7] the target is Ephrin type-A receptor 2 (Homo sapiens) (UniProt P29317). Description: Selectivity interaction (KinomeScan (DiscoverX)) EUB0000666a EPHA2. Conditions: at 10 µM.
Chain of Ephrin type-A receptor 2 (Homo sapiens) (P29317 whole entry): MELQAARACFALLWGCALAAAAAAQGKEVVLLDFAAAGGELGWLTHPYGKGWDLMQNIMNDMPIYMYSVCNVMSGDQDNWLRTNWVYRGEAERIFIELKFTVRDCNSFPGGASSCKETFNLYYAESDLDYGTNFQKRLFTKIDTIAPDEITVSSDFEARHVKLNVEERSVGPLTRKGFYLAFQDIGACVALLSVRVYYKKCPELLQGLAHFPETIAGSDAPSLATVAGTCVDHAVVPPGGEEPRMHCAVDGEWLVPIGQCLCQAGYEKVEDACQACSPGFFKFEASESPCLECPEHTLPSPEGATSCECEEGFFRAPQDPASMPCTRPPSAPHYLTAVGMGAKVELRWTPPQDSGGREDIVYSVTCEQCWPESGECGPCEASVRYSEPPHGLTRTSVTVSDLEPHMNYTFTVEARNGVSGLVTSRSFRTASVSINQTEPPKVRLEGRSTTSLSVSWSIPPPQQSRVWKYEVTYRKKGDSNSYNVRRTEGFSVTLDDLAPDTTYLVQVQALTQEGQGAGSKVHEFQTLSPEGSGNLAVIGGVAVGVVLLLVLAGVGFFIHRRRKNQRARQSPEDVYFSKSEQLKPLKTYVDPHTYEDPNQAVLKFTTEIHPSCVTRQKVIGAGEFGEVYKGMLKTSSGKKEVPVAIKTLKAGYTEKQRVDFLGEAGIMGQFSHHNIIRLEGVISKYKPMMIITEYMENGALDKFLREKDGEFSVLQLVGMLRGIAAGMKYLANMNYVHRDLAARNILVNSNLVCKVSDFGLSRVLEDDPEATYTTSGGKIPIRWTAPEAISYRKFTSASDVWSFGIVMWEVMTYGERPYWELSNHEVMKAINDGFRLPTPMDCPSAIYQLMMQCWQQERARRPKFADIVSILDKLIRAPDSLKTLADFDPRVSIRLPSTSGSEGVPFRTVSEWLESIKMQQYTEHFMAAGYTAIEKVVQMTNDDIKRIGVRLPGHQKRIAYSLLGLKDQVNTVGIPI
In assay [8] the target is Mitogen-activated protein kinase 9 (Homo sapiens, UniProt P45984). Description: Selectivity interaction (Kinase panel (Z-LYTE Assay)) EUB0001632a MAPK9. To be noted: at 10 µM.
Chain of Mitogen-activated protein kinase 9 (P45984 whole entry, looked up): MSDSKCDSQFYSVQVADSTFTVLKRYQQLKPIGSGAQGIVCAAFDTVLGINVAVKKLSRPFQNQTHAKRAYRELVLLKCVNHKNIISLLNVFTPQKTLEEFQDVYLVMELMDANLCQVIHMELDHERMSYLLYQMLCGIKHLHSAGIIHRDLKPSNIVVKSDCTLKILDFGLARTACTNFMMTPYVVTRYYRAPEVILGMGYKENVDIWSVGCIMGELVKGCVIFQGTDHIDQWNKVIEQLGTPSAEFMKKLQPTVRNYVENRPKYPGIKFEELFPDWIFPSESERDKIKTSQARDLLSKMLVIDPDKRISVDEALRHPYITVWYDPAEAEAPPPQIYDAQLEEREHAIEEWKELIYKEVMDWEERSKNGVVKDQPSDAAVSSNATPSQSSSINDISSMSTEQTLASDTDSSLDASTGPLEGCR
In assay [9] the target is Serine/threonine-protein kinase 16 (Homo sapiens, UniProt O75716). Kind of assay: Selectivity interaction (ActivX KiNativ screen (kinase selectivity in THP-1 cell lysates)) EUB0000639a STK16. Type of assay: subcellular. To be noted: lysate, at 1 µM.
Assay [10] deals with Aurora kinase B (Homo sapiens, UniProt Q96GD4). Kind of assay: Selectivity interaction (ActivX KiNativ screen (kinase selectivity in THP-1 cell lysates)) EUB0000639a AURKB. The class given is subcellular. To be noted: lysate, at 0.01 µM.
Assay [11] concerns the target Proto-oncogene tyrosine-protein kinase Src (Homo sapiens, UniProt P12931). Kind of assay: Selectivity interaction (ActivX KiNativ screen (ex vivo kinase selectivity in human PBMCs)) EUB0001619a SRC. Type of assay: cell-based. Conditions: PBMC, at 1 µM.
In assay [12] the target is T2, Myosin light chain kinase family member 4 (Homo sapiens) (UniProt Q86YV6).
T2 sequence (whole entry): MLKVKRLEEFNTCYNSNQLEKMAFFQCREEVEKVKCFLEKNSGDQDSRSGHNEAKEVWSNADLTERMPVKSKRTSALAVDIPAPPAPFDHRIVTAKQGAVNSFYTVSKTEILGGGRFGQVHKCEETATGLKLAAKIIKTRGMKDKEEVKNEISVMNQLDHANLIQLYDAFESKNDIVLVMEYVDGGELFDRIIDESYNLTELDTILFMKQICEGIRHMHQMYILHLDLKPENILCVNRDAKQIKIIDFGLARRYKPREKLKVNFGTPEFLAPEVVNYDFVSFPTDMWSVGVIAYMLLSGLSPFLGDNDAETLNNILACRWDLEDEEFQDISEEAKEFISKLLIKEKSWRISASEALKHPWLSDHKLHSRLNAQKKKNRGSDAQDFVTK
Description: Selectivity interaction (KinomeScan (DiscoverX)) EUB0001619a MYLK4. Conditions: at 1 µM.

Chain of Rho-associated protein kinase 1 (Homo sapiens) (Q13464 2-1354 limits assumed): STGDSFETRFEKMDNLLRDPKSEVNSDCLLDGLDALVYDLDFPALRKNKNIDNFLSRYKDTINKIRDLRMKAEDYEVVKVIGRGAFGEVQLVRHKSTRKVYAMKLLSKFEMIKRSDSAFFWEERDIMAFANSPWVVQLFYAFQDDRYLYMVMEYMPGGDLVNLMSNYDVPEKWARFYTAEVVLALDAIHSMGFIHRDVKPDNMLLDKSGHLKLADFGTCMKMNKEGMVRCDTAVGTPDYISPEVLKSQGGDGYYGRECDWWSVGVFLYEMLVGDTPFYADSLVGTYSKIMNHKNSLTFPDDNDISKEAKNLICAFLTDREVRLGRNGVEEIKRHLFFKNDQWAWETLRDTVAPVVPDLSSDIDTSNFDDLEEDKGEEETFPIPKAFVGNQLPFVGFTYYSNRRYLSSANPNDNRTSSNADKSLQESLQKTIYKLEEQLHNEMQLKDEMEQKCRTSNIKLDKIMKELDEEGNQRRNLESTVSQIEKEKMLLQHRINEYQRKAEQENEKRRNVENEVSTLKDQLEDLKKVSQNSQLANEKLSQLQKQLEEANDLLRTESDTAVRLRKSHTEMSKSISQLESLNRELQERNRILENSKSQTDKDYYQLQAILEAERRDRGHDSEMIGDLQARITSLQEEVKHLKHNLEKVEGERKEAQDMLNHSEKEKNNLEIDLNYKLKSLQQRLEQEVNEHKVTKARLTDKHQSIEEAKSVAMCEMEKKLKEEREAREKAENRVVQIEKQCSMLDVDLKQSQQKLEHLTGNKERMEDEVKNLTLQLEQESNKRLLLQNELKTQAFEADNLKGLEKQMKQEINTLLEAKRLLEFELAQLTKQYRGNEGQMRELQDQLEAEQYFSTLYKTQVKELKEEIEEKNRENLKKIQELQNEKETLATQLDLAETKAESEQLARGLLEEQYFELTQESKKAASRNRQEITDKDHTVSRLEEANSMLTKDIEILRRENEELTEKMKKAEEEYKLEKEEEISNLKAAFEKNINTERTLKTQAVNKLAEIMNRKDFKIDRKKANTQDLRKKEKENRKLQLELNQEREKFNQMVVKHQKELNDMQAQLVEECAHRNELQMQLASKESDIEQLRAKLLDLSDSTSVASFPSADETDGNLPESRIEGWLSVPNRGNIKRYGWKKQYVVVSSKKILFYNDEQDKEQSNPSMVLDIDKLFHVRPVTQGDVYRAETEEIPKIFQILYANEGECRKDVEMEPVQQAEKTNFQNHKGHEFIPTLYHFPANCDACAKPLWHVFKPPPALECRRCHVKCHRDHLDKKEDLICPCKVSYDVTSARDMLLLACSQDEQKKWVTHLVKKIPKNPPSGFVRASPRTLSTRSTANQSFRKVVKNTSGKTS
Chain of Serine/threonine-protein kinase PLK2 (Q9NYY3 whole entry, looked up): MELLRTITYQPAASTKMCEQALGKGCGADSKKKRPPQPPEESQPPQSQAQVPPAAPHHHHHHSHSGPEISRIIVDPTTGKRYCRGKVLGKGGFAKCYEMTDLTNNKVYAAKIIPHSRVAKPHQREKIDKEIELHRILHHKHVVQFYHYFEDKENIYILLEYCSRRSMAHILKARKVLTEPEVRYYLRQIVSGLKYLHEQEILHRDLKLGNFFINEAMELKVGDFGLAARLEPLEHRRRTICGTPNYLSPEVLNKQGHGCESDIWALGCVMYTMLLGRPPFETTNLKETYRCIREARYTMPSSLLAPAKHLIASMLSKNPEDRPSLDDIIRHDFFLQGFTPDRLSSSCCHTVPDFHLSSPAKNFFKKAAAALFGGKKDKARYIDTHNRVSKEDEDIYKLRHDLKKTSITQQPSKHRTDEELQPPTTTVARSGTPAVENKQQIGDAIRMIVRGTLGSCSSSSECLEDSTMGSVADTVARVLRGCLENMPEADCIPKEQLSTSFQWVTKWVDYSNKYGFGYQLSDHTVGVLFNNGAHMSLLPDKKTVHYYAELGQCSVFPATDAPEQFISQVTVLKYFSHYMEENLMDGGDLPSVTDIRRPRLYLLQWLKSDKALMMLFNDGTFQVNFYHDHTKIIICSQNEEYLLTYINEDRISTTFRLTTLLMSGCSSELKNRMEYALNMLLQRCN
Chain of Proto-oncogene tyrosine-protein kinase Src (P12931 2-536 limits assumed): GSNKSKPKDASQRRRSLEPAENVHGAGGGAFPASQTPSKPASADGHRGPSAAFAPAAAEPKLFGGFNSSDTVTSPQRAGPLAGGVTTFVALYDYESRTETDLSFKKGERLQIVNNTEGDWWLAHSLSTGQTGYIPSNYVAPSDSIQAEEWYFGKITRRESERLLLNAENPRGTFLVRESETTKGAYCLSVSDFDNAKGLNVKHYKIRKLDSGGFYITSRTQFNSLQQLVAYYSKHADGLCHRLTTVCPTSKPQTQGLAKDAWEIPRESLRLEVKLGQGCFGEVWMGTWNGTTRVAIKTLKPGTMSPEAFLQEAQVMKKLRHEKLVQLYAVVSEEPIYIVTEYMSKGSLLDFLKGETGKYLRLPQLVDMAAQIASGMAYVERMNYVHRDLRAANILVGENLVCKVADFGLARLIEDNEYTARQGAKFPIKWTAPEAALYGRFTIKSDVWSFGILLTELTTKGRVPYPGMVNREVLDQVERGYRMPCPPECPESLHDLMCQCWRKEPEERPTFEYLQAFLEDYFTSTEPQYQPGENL

Take `C=CC(=O)Nc1cccc(C(=O)Nc2ccc(Nc3cc(-c4[nH]c(SC)nc4C)ccn3)cc2)c1`: the figures for the % of control in [1] (at 1 µM) and in assay [1] (at 5 µM) were 104% and 80%, respectively.
`CCN(CC)CCCCNc1ncc2cc(-c3cc(OC)cc(OC)c3)c(NC(=O)NC(C)(C)C)nc2n1` gave a % of control in assay [2] of 100%.
On to `Nc1cnc(N2CCc3cc(S(=O)(=O)Nc4c(F)cc(Cl)cc4F)cc(N4CCCC4=O)c32)nc1` [TP-020n], for which the % of control in [3] was 89%.
The compound `COc1cc(Nc2nc(C)cc(-c3cnn4nc(OC)ccc34)n2)cc(C(F)(F)F)c1` returned a % of control in assay [4] of 77%.
As for `Cc1cc(F)c(C(=O)Nc2cccc(-c3nncn3C(C)C)n2)cc1-n1cnc(C2CC2)c1`, the % of control in assay [5] was 100%.
In [6], `CC(=O)c1cc(-c2ccccc2OCC2CC2)c2ncccn12` had a % of control of 108%.
Compound `O=C(NOC[C@H](O)CO)c1ccc(F)c(F)c1Nc1ccc(I)cc1F` yielded a % of control in assay [7] of 88%.
For `Cn1cc(-n2cnc3c(NCc4nc5cc(Cl)c(Cl)cc5[nH]4)nc(N4CCOCC4)nc32)cn1`, in assay [8], the % of control was 5.25%.
With `CC[C@@H]1[C@H](F)C(=O)N[C@@H]1COc1nccc2cc(C(N)=O)c(OC)cc12` [ZIMLOVISERTIB], the % of inhibition was found to be 58.6% in assay [9] and 4.9% in assay [10].
With `N#Cc1cccc(-c2c[nH]c3ncnc(N4CCOCC4)c23)c1`, in [11], the % of inhibition was -9%. Besides, the % of control in [12] was 100%.

These data come from ChEMBL document CHEMBL5465560, “Selectivity Literature for EUbOPEN Chemogenomic Library” (2024).
